Our source for the IC50 values is patent US12018023B2 (NERVIANO MEDICAL SCIENCES S.R.L., priority 2018, dated 2024).

pIC50: −log10 of the molar value.

The target in test [1] is T1, IDH1^R132C (Homo sapiens, UniProt O75874, R132C).
T1 construct: purchased not specified
The test is described as follows: NADPH depletion assay, IDH1 R132C. The class given is biochemical. The procedure, abridged:
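Fluorescence readout (Ex544/Em590) of NADPH left after diaphorase/resazurin addition. Alpha-ketoglutarate 0.14 mM final, enzyme 2 nM final; compound preincubation 15 min, then 60 min reaction, both at room temperature, pH 7.6 Tris buffer.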

Test [2] deals with T2, IDH2^R172K (Homo sapiens, UniProt P48735, R172K).
T2 construct: purchased not specified
T2 sequence (P48735 40-452 R172K): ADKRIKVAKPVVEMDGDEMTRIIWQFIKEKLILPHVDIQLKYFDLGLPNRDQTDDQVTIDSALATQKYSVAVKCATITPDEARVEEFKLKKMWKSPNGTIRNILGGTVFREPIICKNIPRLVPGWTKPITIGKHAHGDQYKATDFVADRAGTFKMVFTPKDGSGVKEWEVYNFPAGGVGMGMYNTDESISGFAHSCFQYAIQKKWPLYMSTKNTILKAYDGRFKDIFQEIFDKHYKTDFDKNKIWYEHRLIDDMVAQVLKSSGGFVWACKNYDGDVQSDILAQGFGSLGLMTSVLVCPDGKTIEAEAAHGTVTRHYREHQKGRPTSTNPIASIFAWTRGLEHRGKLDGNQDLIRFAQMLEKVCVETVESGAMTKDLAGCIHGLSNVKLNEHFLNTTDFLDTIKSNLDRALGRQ
Nature of the test: NADPH depletion assay, IDH2 R172K. The format is biochemical. Summed up: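 This NADPH depletion assay measures NADPH left after conversion of alpha-ketoglutarate (0.55 mM final) by 16 nM IDH2 R172K over 60 min at room temperature, after a 15 min compound preincubation in pH 7.6 Tris buffer. Substrate mix held 12 μM NADPH. Diaphorase/resazurin gave the fluorescence read-out at 544/590 nm.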

Test [3] has as its target T3, IDH1WT enzyme (Homo sapiens, UniProt O75874).
T3 construct: purchased not specified
The test is described as follows: Enzymatic assay for IDH1 wild-type (NADPH forming assay). The format is biochemical. The procedure:
IDH1WT enzymatic activity converting isocitric acid to alpha-ketoglutarate is measured using a NADPH forming assay. In the assay the forming cofactor is measured in continuous with the addition of a catalytic excess of diaphorase and resazurin, to generate a fluorescent signal in proportion to the amount of NADPH forming.
Compounds were preincubated with the enzyme, then the reaction was started by the addition of NADP^+, isocitrate, diaphorase and a corresponding substrate, resazurin. Diaphorase reduces resazurin to the highly fluorescent resorufin with the concomitant oxidation of NADPH to NADP. Specifically, 0.2 uL of test compound, previously serially diluted 1 to 3, 10 experimental points from 1 mM in DMSO, was added to 0.016 nM IDH1WT enzyme in 10 μL of Assay Buffer (150 mM NaCl, 50 mM Tris-HCl pH 7.6, 10 mM MgCl2, 0.001% Triton X-100, 4 mM β-mercaptoethanol); the mixture is incubated for 15 minutes at room temperature. The reaction is started with the addition of 10 μL of Substrate Mix (400 μM NADP^+, 40 μM iso-citrate, 5 ugr/mL Diaphorase and 7 μM resazurin in Assay Buffer), the mixture is incubated at room temperature and the reaction is reading on a ViewLux as platereader at Ex544/Em590 in continuous.

In test [4] the target is T4, IDH1^R132H homodimer enzyme (Homo sapiens, UniProt O75874, R132H).
T4 construct: purchased not specified
T4 sequence (O75874 whole entry R132H): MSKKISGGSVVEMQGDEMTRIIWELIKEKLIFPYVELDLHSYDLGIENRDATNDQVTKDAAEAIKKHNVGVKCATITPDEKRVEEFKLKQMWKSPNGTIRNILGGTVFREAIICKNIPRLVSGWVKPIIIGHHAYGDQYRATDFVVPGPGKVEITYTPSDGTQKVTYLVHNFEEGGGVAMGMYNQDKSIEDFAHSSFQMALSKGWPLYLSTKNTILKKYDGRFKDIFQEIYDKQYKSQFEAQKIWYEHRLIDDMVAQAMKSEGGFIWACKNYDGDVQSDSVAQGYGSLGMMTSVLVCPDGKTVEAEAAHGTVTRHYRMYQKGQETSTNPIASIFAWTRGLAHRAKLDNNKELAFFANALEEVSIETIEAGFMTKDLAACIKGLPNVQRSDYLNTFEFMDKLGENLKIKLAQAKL
Nature of the test: NADPH depletion assay, IDH1 R132H. The format is biochemical. Summed up:
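IDH1 R132H enzyme (8 nM as diluted) in Tris-HCl pH 7.6 with 10 mM MgCl2, 0.001% Triton X-100 and 4 mM β-mercaptoethanol is preincubated 15 min at RT with compound. Substrate mix (12 uM NADPH, 3.4 mM α-ketoglutarate) is added for 60 min; remaining NAD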

Test [5] deals with HT-1080 (IDH1^R132C). Nature of the test: Cellular 2-HG production assay, HT-1080. The class given is cell-based. The settings on record: Homo sapiens, HT-1080, 72 h, inhibition of 2HG production, 72 hr incubation, LC-MS/MS; read-out: HT1080 2-HG IC50. The procedure, abridged:
(§1)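 Cells in E-MEM/10% FCS (G418 500 μg/mL for the transfected U87-MG line) at 500 per well got compound 24 h after seeding and were incubated 72 h at 37 °C. Medium 2-HG was measured by LC-MS/MS with 2-HG-d3 internal standard; IC50 came from sigmoidal fitting versus controls.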

The subject of test [6] is U87MG_IDH1R132H. The test is described as follows: Cellular 2-HG production assay, U87-MG-IDH1 R132H. The format is cell-based. The settings on record: inhibition of 2HG production, 72 hr incubation, LC-MS/MS. The procedure, abridged: as §1

T1 sequence (O75874 whole entry R132C): as the sequence (O75874 whole entry R132H) above, with H132C counted along it
T3 sequence (O75874 whole entry): as the sequence (O75874 whole entry R132H) above, with H132R counted along it

Usually pIC50 stands for the IC50 on a negative log10 scale, so that one unit is a factor of ten. In the case of `C=CC(=O)N1CCN([C@@H](CC2CC2)c2ccc([C@H](C)Nc3ncc4ccc(=O)n(C(C)C)c4n3)cc2)CC1` [cpd 230, 2-{[(1S)-1-{4-[(1S)-1-(4-acryloylpiperazin-1-yl)-2-cyclopropylethyl]phenyl}ethyl]amino}-8-(propan-2-yl) pyrido [2,3-d]pyrimidin-7(8H)-one], the pIC50 in test [1] was 9.00; in test [2], 7.96; in test [3] it was 7.41; in test [4], 9.00; in test [5] it was 9.40; in test [6], 9.40.
For the molecule `C[C@H](Nc1ncc2ccc(=O)n(CC(C)(C)C)c2n1)c1ccc(CN2CCCC(F)(F)C2)cc1` [cpd 117, 2-{[(1S)-1-{4-[(3,3-difluoropiperidin-1-yl)methyl]phenyl}ethyl]amino}-8-(2,2-dimethylpropyl)pyrido[2,3-d]pyrimidin-7(8H)-one], the pIC50 was 7.54 in test [1]; 5.26 in test [2]; 5.80 in test [3]; 7.26 in test [4]; 6.81 in test [5]; 6.75 in test [6].
With `C=CC(=O)N1CCN(C(CC2CC2)c2ccc([C@H](C)Nc3ncc4ccc(=O)n(CC)c4n3)cc2)CC1` (stereo partly drawn) [cpd 219, 2-{[(1S)-1-{4-[1-(4-acryloylpiperazin-1-yl)-2-cyclopropylethyl]phenyl}ethyl]amino}-8-ethylpyrido[2,3-d]pyrimidin-7(8H)-one], the pIC50 in test [1] is 9.00; in test [2], 8.22; in test [3] it was 7.28; in test [4], 9.00; in test [5], 9.40; in test [6], 9.40.
For the molecule `C=CC(=O)N1CCN(Cc2ccc([C@H](C)Nc3ncc4ccc(=O)n(CC(C)(C)CO)c4n3)cc2)CC1` [cpd 140, 2-{(S)-1-[4-(4-Acryloyl-piperazin-1-ylmethyl)-phenyl]-ethylamino}-8-(3-hydroxy-2,2-dimethyl-propyl)-8H-pyrido [2,3-d]pyrimidin-7-one], the negative logarithm of the IC50 (pIC50) in test [1] was 6.94; in test [2], 5.49; in test [3], 5.31; in test [4] it was 6.60; in test [5], 6.97; in test [6] it was 8.00.
`CC(C)[C@H](C)n1c(=O)ccc2cnc(N[C@@H](C)c3ccc(CN4CCC(F)(F)CC4)c(F)c3)nc21` [cpd 67, 2-{[(1S)-1-{4-[(4,4-difluoropiperidin-1-yl)methyl]-3-fluorophenyl}ethyl]amino}-8-[(2S)-3-methylbutan-2-yl]pyrido[2,3-d]pyrimidin-7(8H)-one]: the pIC50 in test [1] was 7.82; in test [2], 5.13; in test [3] it was 5.77; in test [4] it was 7.43; in test [5], 7.17; in test [6], 6.70.
As for `C=CC(=O)N1CCN([C@@H](CC)c2ccc([C@H](C)Nc3ncc4ccc(=O)n(C(C)C)c4n3)cc2)CC1` [cpd 227, 2-{[(1S)-1-{4-[(1S)-1-(4-acryloylpiperazin-1-yl)propyl]phenyl}ethyl]amino}-8-(propan-2-yl)pyrido[2,3-d]pyrimidin-7(8H)-one], the pIC50 in test [1] was 8.30; in test [2], 7.31; in test [3], 6.96; in test [4], 8.15; in test [5] it was 8.85; in test [6], 9.40.
With `C[C@H](Nc1ncc2ccc(=O)n(CC(C)(C)C)c2n1)c1ccc(CN2CCC(F)(F)CC2)c(F)c1` [cpd 94, 2-{[(1S)-1-{4-[(4,4-difluoropiperidin-1-yl)methyl]-3-fluorophenyl}ethyl]amino}-8-(2,2-dimethylpropyl) pyrido[2,3-d]pyrimidin-7(8H)-one], the pIC50 in test [1] is 7.52; in test [2], 5.25; in test [3] it was 5.88; in test [4], 7.15; in test [5], 6.69; in test [6], 6.43.
For `C=CC(=O)N1CCN(C(CC)c2ccc([C@@H](C)Nc3ncc4ccc(=O)n(C(C)C)c4n3)cc2)CC1` (stereo in doubt) [cpd 229, 2-{[(1R)-1-{4-[(1R)-1-(4-acryloylpiperazin-1-yl)propyl]phenyl}ethyl]amino}-8-(propan-2-yl)pyrido[2,3-d]pyrimidin-7(8H)-one], the pIC50 in test [1] is 7.36; in test [2] it was 6.41; in test [3], 6.08; in test [4] it was 7.08; in test [5], 7.70; in test [6], 7.89.
As to `C=CC(=O)N1CCN(C(CC2CC2)c2ccc([C@H](C)Nc3ncc4ccc(=O)n(C(C)C)c4n3)cc2)CC1` (stereo partly drawn) [cpd 220, 2-{[(1S)-1-{4-[1-(4-acryloylpiperazin-1-yl)-2-cyclopropylethyl]phenyl}ethyl]amino}-8-(propan-2-yl)pyrido[2,3-d]pyrimidin-7(8H)-one], the pIC50 in test [1] was 9.00; in test [2], 7.82; in test [3], 7.28; in test [4], 9.00; in test [5] it was 9.52; in test [6], 9.30.
Regarding `C=CC(=O)N1CCN(Cc2ccc([C@H](C)Nc3ncc4ccc(=O)n(CC(C)(C)C)c4n3)cc2)CC1` [cpd 139, 2-{(S)-1-[4-(4-Acryloyl-piperazin-1-ylmethyl)-phenyl]-ethylamino}-8-(2,2-dimethyl-propyl)-8H-pyrido[2,3-d]pyrimidin-7-one], the pIC50 was 7.68 in test [1]; 6.58 in test [2]; 6.14 in test [3]; 7.38 in test [4]; 7.66 in test [5]; 8.10 in test [6].
As for `C[C@H](Nc1ncc2ccc(=O)n(CC(C)(C)C)c2n1)c1ccc(CN2CCC(F)(F)CC2)cc1` [cpd 105, 2-{[(1S)-1-{4-[(4,4-difluoropiperidin-1-yl)methyl]phenyl)ethyl]amino)-8-(2,2-dimethylpropyl)pyrido[2,3-d]pyrimidin-7(8H)-one], the pIC50 in test [1] is 7.26; in test [2] it was 5.33; in test [3], 5.69; in test [4] it was 6.98; in test [5], 6.94; in test [6] it was 6.38.
In the case of `C=CC(=O)N1CCN([C@H](CC)c2ccc([C@H](C)Nc3ncc4ccc(=O)n(C(C)C)c4n3)cc2)CC1` [cpd 228, 2-{[(1S)-1-{4-[(1R)-1-(4-acryloylpiperazin-1-yl)propyl]phenyl}ethyl]amino}-8-(propan-2-yl)pyrido[2,3-d]pyrimidin-7(8H)-one], the negative logarithm of the IC50 (pIC50) in test [1] was 8.70; in test [2] it was 7.60; in test [3], 7.56; in test [4] it was 8.70; in test [5] it was 9.10; in test [6], 9.22.
